# Key:
# Assay type in all cases: cell-based, human
# [1] = test system: MCF-7 C20 cells with Nod2; assay: Apoptosis in MCF-7 C20 cells complemented with Nod2; settings: MCF-7 C20 complemented with Nod2 (data not shown)
# [2] = test system: MCF-7 Nod2 cells; assay: Apoptosis (PI, flow cytometry) in MCF-7 cells over-expressing Nod2; settings: 20 ug/ml plus CHX, 48 h
# Experimental: (§1) In FIG. 5A, MCF-7 Blasto, MCF-7 Nod1 and MCF-7 Nod2 were treated with the NOD1 ligand γTriDAP or the Nod2 ligand muramyl dipeptide (MDP)(20 ug/ml each) in the presence or absence of CHX for 48 h. Cells were then incubated with PI and apoptotic cell death was measured by flow cytometry. […] In FIG. 5B, expression of NOD1 and NOD2 was confirmed by Western blot analysis using anti-Myc antibodies for detection of the recombinant proteins. […] MCF-7 Blasto, MCF-7 Nod1 and MCF-7 Nod2 cells were stimulated with γTriDAP or MDP in the presence or absence of CHX (0.5 ug/ml) for 24 h. Cell supernatants were then harvested and assayed for IL-8 secretion.
# Cell viability assays. Propidium iodide exclusion assay: Cells were stimulated as indicated for 2 days. […] The extent of cell death was analyzed with a FACSCalibur flow cytometer (Becton Dickinson, Mountain View, Calif.). […] Cells were fixed in 4% paraformaldehyde and examined by fluorescence microscopy.
# (§2) Experiments were also performed to ascertain whether activation of Nod2 by its specific activator, muramyl dipeptide (MDP), would initiate apoptosis in parental MCF-7 cells or in MCF-7 cells over-expressing Nod2 (MCF-7 Nod2). Thus, γTriDAP or MDP were added to each of these lines and apoptosis (FIG. 5A) and IL-8 production (FIG. 5C) were measured. […]
# [3] = test system: MCF-7 Nod2 cells; assay: IL-8 secretion (ELISA) in MCF-7 Nod2 cells; settings: 24 h
# Experimental: as §1
# IL-8 ELISA. Concentrations of IL-8 in the culture supernatants of transfected HeLa cells were measured by ELISA using 96-well Immunlon plates (Dynatech Laboratories, Chantilly, Va.). ELISA was performed using the mAb MAB208 for capture and a biotinylated polyclonal rabbit anti-human IL-8 Ab (R&D Systems, Minneapolis, Minn.) followed by streptavidin HRP for detection.
# as §2
# [4] = test system: MCF-7 cells expressing wild type RIP2, RIP2 KD or RIP2ΔCARD; assay: Apoptosis (PI, flow cytometry) in MCF-7 cells stably expressing RIP2 constructs; settings: 20 μg/ml, CHX 3 μg/ml, 48 hr
# Experimental: FIG. 13A-D illustrate that RIP2 is an important component of the Nod1 apoptotic pathway. […] MCF-7 cells were stably transfected with Myc-Nod1, Myc-RIP2 (wild type), Myc-RIP2 KD, and Myc-RIP2 ΔCARD. Test cells were then treated with γTriDAP, αTriDAP and MDP (20 μg/ml each) in the presence or absence of CHX (3 μg/ml) for 48 hr, while control cells were not treated with these agents. Cells were then incubated with propidium iodide (PI) and apoptotic cell death was measured by flow cytometry. FIG. 13B illustrates the effect of TNF upon apoptosis in the same MCF-7 cell lines described in FIG. 13A. These cells lines were treated with TNF (10 ng/ml) for 18 hr and apoptotic cell death was assessed as described for FIG. 13A. TNF increased apoptosis in all the cell lines tested. […] Cells were incubated in the presence of increasing concentrations of γTriDAP or MDP in the presence of CHX for 48 hr and apoptotic cell death was assessed as described for FIG. 13A. FIG. 13D illustrates IL-8 secretion by MCF-7 Blasto, MCF-7 Nod1 and MCF-7 RIP2 wild type cells after stimulation with γTriDAP in the presence of CHX ([…]) or TNF. […]
# Cell viability assays. […] The extent of cell death was analyzed with a FACSCalibur flow cytometer (Becton Dickinson, Mountain View, Calif.). […] Cells were fixed in 4% paraformaldehyde and examined by fluorescence microscopy. […]
substance,measurement,setting,value
muramyl dipeptide [MDP],apoptosis,[1],did not result in apoptosis
same,apoptosis,[2],did not undergo increased apoptosis
same,IL-8 secretion,[3],did result in IL-8 secretion
same,apoptosis,[4]; cells expressing RIP2 KD,effective at inducing high levels of apoptosis
same,apoptosis,[4]; cells expressing either wild type RIP2 or RIP2ΔCARD,not

# Source: US20090028795A1, “NOD1 as an Anti-Tumor Agent” (priority 2005, published 2009)
